In patent publication US8586588B2, “Aryl pyridazinone derivatives and their use as H3 receptor ligands” (Cephalon, Inc., priority 2006, dated 2013):
Where two headings read alike, the source gives them in different places.

Legend:
[1] = target: T1, human H3 receptor (Homo sapiens, UniProt Q9Y5N1); experiment: Human H3 radioligand binding ([3H]-N-alpha-methylhistamine, CHO cell membranes, SPA); details: binding constant as letter class
T1 construct: expressed in transfected cells
Summary of the method: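 Scintillation proximity format: bead-proximal [3H]-N-alpha-methylhistamine (approximately 1 nM final) bound to human H3 receptor in CHO membranes was counted after 4 h at room temperature, light-protected. Buffer was pH 7.4 Tris/MgCl2/BSA; test compounds spanned 0.01 nM-30 μM; 10 μM clobenpropit set non-specific binding.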

[2] = target: T2, rat histamine H3 receptor (Rattus norvegicus, UniProt Q9QYN8); experiment: Rat H3 radioligand binding ([3H]-N-alpha-methylhistamine, CHO-A3 cell membranes, SPA); details: binding constant as letter class
T2 construct: encoding the entire 445-amino-acid rat histamine H3 receptor; expressed in transfected cells
T2 sequence (Q9QYN8 whole entry): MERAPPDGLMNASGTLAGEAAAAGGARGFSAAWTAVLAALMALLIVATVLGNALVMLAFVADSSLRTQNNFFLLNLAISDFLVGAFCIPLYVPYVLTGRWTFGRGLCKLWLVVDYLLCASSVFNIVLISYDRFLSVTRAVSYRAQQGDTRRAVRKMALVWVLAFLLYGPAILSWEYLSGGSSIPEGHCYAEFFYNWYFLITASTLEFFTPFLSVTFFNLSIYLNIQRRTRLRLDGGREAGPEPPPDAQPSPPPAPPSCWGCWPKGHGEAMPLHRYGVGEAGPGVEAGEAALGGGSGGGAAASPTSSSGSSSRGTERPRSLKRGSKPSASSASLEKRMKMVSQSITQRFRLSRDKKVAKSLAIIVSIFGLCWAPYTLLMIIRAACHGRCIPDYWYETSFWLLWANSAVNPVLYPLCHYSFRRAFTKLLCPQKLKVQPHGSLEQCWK
Summary of the method: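 Scintillation proximity displacement of about 1 nM [3H]-N-alpha-methylhistamine, test compound 0.01 nM-30 μM, 4 h, room temperature, in the dark. Receptor source: rat H3 stably transfected into CHO-A3 cells, 10 μg membrane protein, Tris-HCl pH 7.4/MgCl2/BSA buffer. Nonspecific binding defined by 10 μM clobenpropit.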

T1 sequence (Q9Y5N1 whole entry): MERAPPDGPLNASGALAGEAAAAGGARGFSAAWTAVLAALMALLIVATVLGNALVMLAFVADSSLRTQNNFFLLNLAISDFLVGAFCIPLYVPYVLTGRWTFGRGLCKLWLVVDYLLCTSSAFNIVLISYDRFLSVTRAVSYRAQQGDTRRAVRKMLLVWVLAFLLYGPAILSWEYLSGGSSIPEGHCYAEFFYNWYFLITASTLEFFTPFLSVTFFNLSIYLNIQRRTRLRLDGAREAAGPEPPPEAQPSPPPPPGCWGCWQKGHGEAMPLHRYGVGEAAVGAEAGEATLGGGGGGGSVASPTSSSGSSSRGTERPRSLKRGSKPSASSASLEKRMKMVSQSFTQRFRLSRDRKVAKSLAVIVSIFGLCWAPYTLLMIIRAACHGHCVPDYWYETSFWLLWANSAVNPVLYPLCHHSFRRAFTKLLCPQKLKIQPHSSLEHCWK

Ki ([1]; Table A) [nM] | Ki ([2]; Table A, read-out: Rat H3 Ki) [nM] | Ki ([1]; Table B) [nM] | Ki ([2]; Table B, read-out: rat H3 Ki) [nM] | SMILES
0.1 to 100 | 0.1 to 100 | – | – | CC(C)n1nc(-c2ccc(OCCCN3CCCC3)cc2)c2sccc2c1=O [Example 29, 5-Isopropyl-7-[4-(3-pyrrolidin-1-yl-propoxy)-phenyl]-5H-thieno[2,3-d]-pyridazin-4-one]
0.1 to 100 | 0.1 to 100 | – | – | C[C@@H]1CCCN1CCCOc1ccc(-c2nn(C)c(=O)cc2-c2ccccc2)cc1 [Example 47, 2-Methyl-6-{4-[3-((R)-2-methyl-pyrrolidin-1-yl)-propoxy]-phenyl}-5-phenyl-2H-pyridazin-3-one]
– | – | 0.1 to 100 | 0.1 to 100 | C[C@@H]1CCCN1CCCOc1ccc2c(c1)CCc1cc(=O)[nH]nc1-2 [Example 209, 8-[3-((R)-2-Methyl-pyrrolidin-1-yl)-propoxy]-5,6-dihydro-2H-benzo[h]cinnolin-3-one]
– | – | 0.1 to 100 | 0.1 to 100 | Cc1cc(OCCCN2CCC[C@H]2C)ccc1C1=NNC(=O)CC1 [Example 199, 6-{(R)-2-Methyl-4-[3-(2-methyl-pyrrolidin-1-yl)-propoxy]-phenyl}-4,5-dihydro-2H-pyridazin-3-one]
– | – | 0.1 to 100 | 0.1 to 100 | O=C1NN=C(c2ccc(OC3CCN(C4CCC4)CC3)cc2)C2CCC12 (stereo not drawn) [Example 172, 5-[4-(1-Cyclobutyl-piperidin-4-yloxy)-phenyl]-3,4-diaza-bicyclo[4.2.0]oct-4-en-2-one]
– | – | 0.1 to 100 | 0.1 to 100 | COCn1ncc(OC)c(-c2ccc(OCCCN3CCC[C@H]3C)cc2)c1=O [Example 236, 5-Methoxy-2-methoxymethyl-4-{4-[3-((R)-2-methyl-pyrrolidin-1-yl)-propoxy]-phenyl}-2H-pyridazin-3-one]
– | – | 0.1 to 100 | 0.1 to 100 | O=C1CCC(c2ccc(OC3CCN(C4CCC4)CC3)cc2)=NN1c1ccccn1 [Example 158, 6-[4-(1-Cyclobutyl-piperidin-4-yloxy)phenyl]-2-pyridin-2-yl-4,5-dihydro-2H-pyridazin-3-one]
101 to 500 | 501 to 1000 | – | – | CN1CCC(COc2ccc(-c3ccc(=O)n(C)n3)cc2)CC1 [Example 71, 2-Methyl-6-[4-(1-methyl-piperidin-4-ylmethoxy)-phenyl]-2H-pyridazin-3-one]
– | – | 0.1 to 100 | 101 to 500 | Cc1ccc(=O)n(-c2ccc(OCCCN3CCC[C@H]3C)cc2)n1 [Example 201, 6-Methyl-2-{4-[3-((R)-2-methyl-pyrrolidin-1-yl)-propoxy]-phenyl}-2H-pyridazin-3-one]
– | – | 0.1 to 100 | 0.1 to 100 | CC1CC(=O)NN=C1c1ccc(OCCCN2CCC[C@H]2C)cc1 (single isomer, unassigned) [Example 195]
– | – | 0.1 to 100 | 0.1 to 100 | Cc1cccnc1-n1nc(C)c(-c2ccc(OCCCN3CCC[C@H]3C)cc2)cc1=O [Example 101, 6-Methyl-2-(3-methyl-pyridin-2-yl)-5-{4-[3-((R)-2-methyl-pyrrolidin-1-yl)-propoxy]-phenyl}-2H-pyridazin-3-one]
0.1 to 100 | 101 to 500 | – | – | CCN(CC)CCCOc1ccc(-c2nn(C(C)C)c(=O)c3ccsc23)cc1 [Example 28, 7-[4-(3-Diethylamino-propoxy)-phenyl]-5-isopropyl-5H-thieno[2,3-d]pyridazin-4-one]
– | – | 0.1 to 100 | 0.1 to 100 | Cn1nc(-c2ccc(OC3CCN(C4CCC4)CC3)nc2)ccc1=O [Example 144, 6-[6-(1-Cyclobutyl-piperidin-4-yloxy)-pyridin-3-yl]-2-methyl-2H-pyridazin-3-one]
0.1 to 100 | > 1000 | – | – | Cn1nc(-c2ccc(OCCN3CCCCC3)cc2)c2ccccc2c1=O [Example 51, 2-Methyl-4-[4-(2-piperidin-1-yl-ethoxy)-phenyl]-2H-phthalazin-1-one]
0.1 to 100 | 0.1 to 100 | – | – | Cn1nc(-c2ccc(OCCCN3CCCCCC3)cc2)c2ccccc2c1=O [Example 53, 4-[4-(3-Azepan-1-yl-propoxy)-phenyl]-2-methyl-2H-phthalazin-1-one]
